Source: patent US20130085105A1, “Transdermal Administration Of Peptides” (The Provost, Fellows and Scholars of the College of Holy …, priority 2010, published 2013)
“And” between values parts separate entries of the source, which are not always exact repeats. Equal values may be shown once. Read-outs that look alike come from different tables or passages of the source.

Assays:
[1] = In vitro transdermal permeation, diffusion cell, hairless mouse skin; assay type: in vitro ADME, hairless mice
Source text: The abdominal skin from male hairless mice (mice of the HRS strain carrying a mutant Hr gene (hr/hr)) aged 6-8 weeks was cleaned of any subcutaneous fat with blood vessels while maintaining the integrity of the viable epidermis and SC. The excised skin was used immediately after preparation and was not stored prior to use.
(§1) A custom made finite dosing diffusion cell (AGB Scientific, Dublin, Ireland, FIG. 1) based upon and modified from the Keshary-Chien type diffusion cell was used for in vitro permeation studies.
(§2) Three to five diffusion cells were used in each permeation experiment and monitoring was performed over a 48 hour period. The cells were linked in series to a thermostatically controlled circulation bath set at 35° C. to mimic human skin surface temperature. Each cell was placed on a stir-plate set at a defined stirring rate of 1,000 rpm. The surface area for permeation provided by each cell was 3.14 cm^2.
(§3) Data collected from each permeation study included:
(§4) 1) the average maximum flux obtained in 48 hours (Jmax),
(§5) 2) the total absorption characterized as the total weight of peptide delivered transdermally into the receiver compartment over a 48 hour period,
(§6) 3) the lag time to detectable flux which was equivalent to the latest sampling time at which no peptide was detectable by HPLC analysis of the receiver solution, and
(§7) 4) an equivalent 48-hour steady state flux was determined by obtaining the slope of the best-fit line for a plot of cumulative flux per unit area versus time (described by McDaid, D. M. et al., Int. J. Pharm., 133:71-83, 1996).
(§8) Fresh hairless mouse skin samples or fresh or freshly thawed pig skin samples were mounted onto the diffusion cell with the SC topmost and in contact with the donor system. A rubber or plastic ring was placed on top of the skin sample to secure it in position. The combination of the diffusion cell top, the skin and the rubber ring was securely fastened together by means of a threaded cap. A recorded volume of receiver solution was added to the receiver compartment and maintained at 35° C. The receiver solution was 60/40 (v/v) PBS/propylene glycol (pH 7.1). The propylene glycol fraction was used to increase the solubility of the somatostatin-fatty acid salts. Previous work reported by Morgan et al. (J. Pharm. Sci., 87:1213-1218, 1998) has shown that a 50/50 water/propylene glycol receptor solution had no detrimental effect on the barrier integrity of both hairless mouse and porcine skin.
The receiver solution was allowed to equilibrate at 35° C. for 30 minutes. […] A narrow-bore hypodermic needle was used to withdraw 1 ml samples from the receiver compartment via the sampling port; at each sampling time, an equal volume of drug-free receiver solution was immediately added back to the receiver compartment. Samples were analyzed by HPLC.
HPLC determination of peptide content in the receiver solution along with the known surface area of skin used (3.14 cm^2) allowed for calculation of transdermal flux (in units of μg/cm^2/hr) for each time point. Panels 1 and 2 of FIG. 2 show flux […] profiles for the myristate, octanoate, decanoate, linoleate, nonanote, acetate and laurate […]
Once lead candidate somatostatin-fatty acid salts had been selected on the basis of in vitro permeation in a DMSO solution, the effect of different solvents and penetration enhancers on permeation was assessed. The concentration of the donor solution corresponded to 5 mg/ml free base peptide for all experiments and all donor solutions were equilibrated at 37° C. for one hour prior to use. These experiments were carried out using hairless mouse skin and pigskin barriers.

[2] = In vitro transdermal permeation, diffusion cell, pig epidermis; assay type: in vitro ADME, domestic pigs; settings: pig epidermis; donor 55% EtOH 40% Water 5% Cineole, 5 mg/ml free base peptide
Description: The viable epidermal layer was removed from the flanks of freshly sacrificed four month-old female domestic pigs. The flank area of each animal was carefully shaved and the upper 200 μm of skin (Meyer, W., et al., Curr. Prob. Dermatol., 7: 39-52, 1978; de Jalón, et al., J. Control. Rel., 75:191-197, 2001) was harvested using an electric dermatome (Robbins Instruments, Chatham, N.J., U.S.A.). Pigskin epidermal specimens were frozen at −18° C. between layers of PBS-soaked tissue paper enclosed in aluminum foil for up to two weeks prior to use in in vitro permeation studies.
as §1, §2, §3, §4, §5, §6, §7, §8
The receiver solution was allowed to equilibrate at 35° C. for 30 minutes. The experiment was initiated by the application of 1 ml of donor solution containing approximately 5 mg free base peptide in DMSO to the skin surface followed by sealing of the donor compartment with Parafilm®. A narrow-bore hypodermic needle was used to withdraw 1 ml samples from the receiver compartment via the sampling port; at each sampling time, an equal volume of drug-free receiver solution was immediately added back to the receiver compartment. Samples were analyzed by HPLC.
HPLC determination of peptide content in the receiver solution along with the known surface area of skin used (3.14 cm^2) allowed for calculation of transdermal flux (in units of μg/cm^2/hr) for each time point. Panels 1 and 2 of FIG. 2 show flux profiles obtained for the oleate salts of Compound A and Compound B in DMSO which far exceeded the flux profiles for the myristate, octanoate, decanoate, linoleate, nonanote, acetate and laurate salts of Compound A as well as the acetate salt of Compound B in DMSO. […]

[3] = Solubility of somatostatin fatty-acid salts; assay type: physicochemical; settings: 24 hours
Description: The solubilities of Compound A and Compound B oleate were determined in deionized water, phosphate-buffered saline (PBS; pH 7.4) and n-octanol. Analysis was carried out by placing an excess of each salt with 1 ml of the selected solvent into four 4 ml sealed HPLC vials. The samples were allowed to equilibrate at 37° C. for 24 hours with shaking. Each of the four dispersions was then filtered through a 0.2 μm nylon membrane (Pall Gelman, Ann Arbor, Mich., U.S.A.). Prior to HPLC analysis, the n-octanol samples were diluted 1:100 with methanol and the PBS and deionized water samples were diluted 1:10 in de-ionized water. Table 7 lists the solubilities of Compound A and Compound B oleate salts in deionized water, PBS and n-octanol.

[4] = Peptide content in upper and lower skin layers after permeation (tape stripping); assay type: in vitro ADME, hairless mice; settings: percentage of total applied dose, hairless mouse skin
Description: The quantity of peptide present in the upper SC and lower dermis layers of the hairless mouse skin samples were determined for each concentration of analog tested. To determine analog concentrations in the SC, the skin samples were wiped clean of donor solution, patted dry and stripped twenty times with Sellotape®, using a fresh piece for each stripping. The twenty pieces of Sellotape® were pooled in a 50 ml centrifuge tube and 10 ml of 50/50 (v/v) acetonitrile/0.1M TFA was added. The sample was homogenized at 20,000 rpm for 5 minutes and then filtered. The peptide content was determined using HPLC. To determine peptide content in the dermal layer, the remaining skin sample was cut into fine pieces, homogenized and analyzed as described.

[5] = Partition coefficients n-octanol/deionized water and n-octanol/PBS; assay type: physicochemical; settings: 24 hours; for Log KOPBS / O/PBS Coefficient (KOPBS): n-octanol/PBS pH 7.4, 37° C.; for Log KOW / O/W Coefficient (KOW): n-octanol/deionized water, 37° C.
Description: The partition coefficients for all somatostatin-fatty acid salts in either n-octanol/deionized water or n-octanol/PBS (pH 7.4) were determined. The partition coefficient is the concentration of Compound A or Compound B in the n-octanol phase divided by the concentration in the aqueous or PBS phase.
An accurately weighed sample of each salt was placed into 4 ml HPLC vials sealed with caps containing pierceable silicone septa and dissolved in 2 ml n-octanol. Two ml of either deionized water or PBS were added to each sample; the vials were vortexed vigorously and incubated at 37° C. with agitation for 24 hours in a shaker-incubator at 400 rpm.
Following incubation, two samples were withdrawn from each vial. Once the layers had fully partitioned, a syringe was used to draw a sample of the aqueous phase or the n-octanol phase. Samples from each phase were diluted appropriately with deionized or methanol prior to HPLC analysis.

[6] = 4.3 mg/ml in DMSO +1% (v/v) oleic acid
[7] = donor DMSO, approx. 5 mg/ml free base peptide (4.9 mg/ml Compound A oleate, 5.2 mg/ml Compound A acetate)
[8] = donor DMSO, approx. 5 mg/ml free base peptide (4.9 mg/ml Compound A oleate, 5.2 mg/ml Compound A acetate), 48 hr
[9] = donor 55% EtOH 40% Water 5% Cineole, 5 mg/ml free base peptide
[10] = donor 55/45 (v/v) EtOH/H2O, approx. 5 mg/ml free base peptide
[11] = donor propylene glycol, approx. 5 mg/ml free base peptide

CC(C)[C@@H]1NC(=O)[C@H](CCCCN)NC(=O)[C@@H](Cc2c[nH]c3ccccc23)NC(=O)[C@H](Cc2ccc(O)cc2)NC(=O)[C@@H](NC(=O)[C@H](N)Cc2ccc3ccccc3c2)CSSC[C@@H](C(=O)N[C@H](C(N)=O)[C@@H](C)O)NC1=O [Compound A di-acetate, D-2-Nal-c(Cys-Tyr-D-Trp-Lys-Val-Cys)-Thr-NH2, reference compound]
Jmax [1, 6]: 53.576 μg/cm^2/hr
Jss [1, 6]: 1.873 μg/cm^2/hr
Lag Time [1, 6]: 0.0 h
Total Absorption [1, 6]: 387.78 μg/48 hr
effect of 1% (v/v) free oleic acid on flux ([1]; donor DMSO): increase of flux
Lag Time [1, 7]: 29.5 h
Total Absorption [1, 7]: 48.08 μg/48 hr
Jmax [1, 8]: 0.320 μg/cm^2/hr
Jss [1, 8]: 0.240 μg/cm^2/hr

CC(C)[C@@H]1NC(=O)[C@H](CCCCN)NC(=O)[C@@H](Cc2c[nH]c3ccccc23)NC(=O)[C@H](Cc2ccc(O)cc2)NC(=O)[C@@H](NC(=O)[C@H](N)Cc2ccc3ccccc3c2)CSSC[C@@H](C(=O)N[C@H](C(N)=O)[C@@H](C)O)NC1=O [Compound A di-oleate, D-2-Nal-c(Cys-Tyr-D-Trp-Lys-Val-Cys)-Thr-NH2]
Jmax ([1]; 8.9 mg/ml free base in DMSO): 24.942 μg/cm^2/hr
Jss ([1]; 8.9 mg/ml free base in DMSO): 3.342 μg/cm^2/hr
Lag Time ([1]; 8.9 mg/ml free base in DMSO): 0.5 h
Total Absorption ([1]; 8.9 mg/ml free base in DMSO): 522.82 μg/48 hr
increase in total peptide flux over 48 hours due to cineole ([1]; 55/40/5 ethanol/water/cineole vs 55/45 ethanol/water): 7.19%
Jmax [1, 9]: 14.100 μg/cm^2/hr
Jss [1, 9]: 6.359 μg/cm^2/hr
Lag Time [1, 9]: 2 h
Total Absorption [1, 9]: 825.35 μg/48 hr
Jmax [1, 10]: 11.343 μg/cm^2/hr
Jss [1, 10]: 5.871 μg/cm^2/hr
Lag Time [1, 10]: 2 h
Total Absorption [1, 10]: 770.02 μg/48 hr
Lag Time [1, 7]: 1.0 h and 1 h
Total Absorption [1, 7]: 448.52 μg/48 hr
Jmax [1, 8]: 19.887 μg/cm^2/hr
Jss [1, 8]: 2.858 μg/cm^2/hr
Jmax [1, 11]: 0.366 μg/cm^2/hr
Jss [1, 11]: 0.318 μg/cm^2/hr
Lag Time [1, 11]: 24 h
Total Absorption [1, 11]: 55.17 μg/48 hr
flux profile in DMSO compared with other salts ([1]; vs myristate, octanoate, decanoate, linoleate, nonanoate, acetate, laurate salts of Compound A and acetate of Compound B): far exceeded
Jmax [2]: 9.019 μg/cm^2/hr
Jss [2]: 1.407 μg/cm^2/hr
Lag Time [2]: 1 h
Total Absorption [2]: 231.09 μg/48 hr
solubility ([3]; deionized water, 37° C., read-out: Solubility DI H2O): 35 µg/mL
solubility ([3]; n-octanol, 37° C., read-out: Solubility n-Octanol): 123000 µg/mL
solubility ([3]; pH 7.4, PBS pH 7.4, 37° C., read-out: Solubility PBS): 40 µg/mL
Wt. % delivered ([4]; 4.9 mg free base in DMSO): 9.23%
Wt. % in lower skin layers ([4]; 4.9 mg free base in DMSO): 7.63%
Wt. % in upper skin layers ([4]; 4.9 mg free base in DMSO): 20.22%
Wt. % delivered ([4]; 8.9 mg free base in DMSO): 5.84%
Wt. % in lower skin layers ([4]; 8.9 mg free base in DMSO): 1.09%
Wt. % in upper skin layers ([4]; 8.9 mg free base in DMSO): 49.93%

D-2-Nal-c(Cys-Tyr-D-Trp-Lys-Val-Cys)-Thr-NH2 [Compound A di-decanoate]
Log KOPBS [5]: 0.844
O/PBS Coefficient (KOPBS) [5]: 6.99
Log KOW [5]: 2.325
O/W Coefficient (KOW) [5]: 211.53

D-2-Nal-c(Cys-Tyr-D-Trp-Lys-Val-Cys)-Thr-NH2 [Compound A di-laurate]
Log KOPBS [5]: 0.854
O/PBS Coefficient (KOPBS) [5]: 7.15
Log KOW [5]: 2.943
O/W Coefficient (KOW) [5]: 876.40

D-2-Nal-c(Cys-Tyr-D-Trp-Lys-Val-Cys)-Thr-NH2 [Compound A di-linoleate]
Log KOPBS [5]: 0.866
O/PBS Coefficient (KOPBS) [5]: 7.35
Log KOW [5]: 1.917
O/W Coefficient (KOW) [5]: 82.52

D-2-Nal-c(Cys-Tyr-D-Trp-Lys-Val-Cys)-Thr-NH2 [Compound A di-myristate]
Log KOPBS [5]: 0.806
O/PBS Coefficient (KOPBS) [5]: 6.40
Log KOW [5]: 2.610
O/W Coefficient (KOW) [5]: 407.50

D-2-Nal-c(Cys-Tyr-D-Trp-Lys-Val-Cys)-Thr-NH2 [Compound A di-nonanoate]
Log KOPBS [5]: 0.811
O/PBS Coefficient (KOPBS) [5]: 6.47
Log KOW [5]: 2.723
O/W Coefficient (KOW) [5]: 528.50

D-2-Nal-c(Cys-Tyr-D-Trp-Lys-Val-Cys)-Thr-NH2 [Compound A di-octanoate]
Log KOPBS [5]: 0.827
O/PBS Coefficient (KOPBS) [5]: 6.71
Log KOW [5]: 2.794
O/W Coefficient (KOW) [5]: 622.86

[4-(2-hydroxyethyl)]-1-piperazinylacetyl-D-Phe-c(Cys-Tyr-D-Trp-Lys-Abu-Cys)-Thr-NH2 [Compound B di-acetate]
Log KOPBS [5]: −2.000
O/PBS Coefficient (KOPBS) [5]: 0.01
Log KOW [5]: −2.000
O/W Coefficient (KOW) [5]: 0.01
